From patent US11066693B2, “Methods for diagnosing LHRH or hCG/LH receptor expressing tumors, cancers and neoplasias” (ESPERANCE PHARMACEUTICALS, INC., priority 2009, dated 2021)
Ends that are not written are not given here.

Assays:
[1] = tested on: MDA-MB-231 human breast cancer cell line; assay: In vitro cytotoxicity, MTT cell viability assay; type: cell-based
Protocol: Incubations were conducted for 24 h at 37° C.

[2] = tested on: AN3-CA human endometrial cancer cell line; conditions: read-out: Cytotoxicity evaluated as IC50 value, 24 h at 37° C., MTT
Protocol: (§1) Studies were designed to test receptor specificity, correlation of sensitivity to LHRH receptor expression and initial efficacy kinetics in vitro by comparing targeted kinetics to untargeted kinetics. […] Cytotoxicity was evaluated as IC50 value for each cell line.
(§2) Cell cultures were prepared in 96 well plates using 10,000 cells/well and were allowed to attach for 48 hours. […] Incubations were conducted for 24 h at 37° C. Cell viability was determined using formazan conversion assays (MTT assays). Controls contained USP saline or 0.1% TritonX-100™ as reference for 0 and 100% cell death, respectively.
(§3) Data were processed and analyzed using Graph Pad Prizm 4™ software (Graph Pad Prizm, Inc). Statistical analysis for significance was determined by a two-tailed Student's T-test.

[3] = tested on: OVCAR-3 ovarian cancer cell line; conditions: read-out: Cytotoxicity evaluated as IC50 value; OVCAR-3, 24 h at 37° C., MTT
Protocol: as §1, §2, §3

[4] = tested on: LNCaP prostate cancer cell line; conditions: read-out: Cytotoxicity evaluated as IC50 value, 24 h at 37° C., MTT
Protocol: as §1, §2, §3

[5] = tested on: PC-3 prostate cancer cell line; conditions: read-out: Cytotoxicity evaluated as IC50 value; PC-3, 24 h at 37° C., MTT
Protocol: as §1, §2, §3

[6] = tested on: MDA-MB-4355 breast cancer cell line; conditions: read-out: Cytotoxicity evaluated as IC50 value; MDA-MB-4355, highest LHRH receptor capacity, 24 h at 37° C., MTT
Protocol: as §1, §2, §3

[7] = tested on: SKOV-3 LHRH receptor negative ovarian cancer cell line; conditions: read-out: Cytotoxicity evaluated as IC50 value, 24 h at 37° C., MTT
Protocol: as §1, §2, §3

Row | Compound | Sensitivity of cell line to the drug ([1]; MDA-MB-231, multi drug resistant) | IC50 ([1]; MDA-MB-231 (ER, Her2/neu, PR negative, multi drug resistant), 24 h at 37° C., MTT, read-out: Cytotoxicity evaluated as IC50 value) | IC50 [2] | IC50 [3] | IC50 [4] | IC50 [5] | IC50 [6] | IC50 [7]
1 | N.N.[Cl][Pt][Cl] [cisplatinum, reference compound] | insensitive | – | – | – | – | – | – | –
2 | KFAKFAKKFAKFAKKFAKQHWSYGLRPG [EP-100] | – | 5.5 µM | 3.3 µM | 3 µM | 1.5 µM | 5.5 µM | 0.8 µM | > 10 µM
